In the kinase profiling compilation of Christmann-Franck et al. (2016):

Legend:
Test in all cases: radiometric filter-binding kinase assay
CSK (human) = CSK (human) (UniProt P41240)
TTK (human) = TTK (human) (UniProt P33981)
MAP3K11 (human) = MAP3K11 (human) (UniProt Q16584)
MELK (human) = MELK (human) (UniProt Q14680)
[1] = test system: SGK1 (human), O00141 [S422D]
RPS6KA3 KD1 KD2 (human) = RPS6KA3 KD1 KD2 (human) (UniProt P51812)
IRAK4 (human) = IRAK4 (human) (UniProt Q9NWZ3); details: compound 0.1 µM
AURKA (human) = AURKA (human) (UniProt O14965)
MYLK (human) = MYLK (human) (UniProt Q15746)
BRSK1 (human) = BRSK1 (human) (UniProt Q8TDC3)
SYK (human) = SYK (human) (UniProt P43405)
MAP3K7 TAB1 (human) = MAP3K7 TAB1 (human) (UniProt Q15750+O43318)
PIM3 (human) = PIM3 (human) (UniProt Q86V86)
CSNK1D (human) = CSNK1D (human) (UniProt P48730)
PIM1 (human) = PIM1 (human) (UniProt P11309)
MAP2K2 (human) = MAP2K2 (human) (UniProt P36507)
EPHB2 (human) = EPHB2 (human) (UniProt P29323)
INSR (human) = INSR (human) (UniProt P06213)
MAPKAPK3 (human) = MAPKAPK3 (human) (UniProt Q16644)
PLK1 (human) = PLK1 (human) (UniProt P53350)
INSRR (human) = INSRR (human) (UniProt P14616)
EPHA4 (human) = EPHA4 (human) (UniProt P54764)
MARK4 (human) = MARK4 (human) (UniProt Q96L34)
BRSK2 (human) = BRSK2 (human) (UniProt Q8IWQ3)
CLK2 (human) = CLK2 (human) (UniProt P49760)
FGFR1 (human) = FGFR1 (human) (UniProt P11362)
MAPK8 (human) = MAPK8 (human) (UniProt P45983)
FLT1 (human) = FLT1 (human) (UniProt P17948)
[2] = test system: RPS6KB1 (human), P23443 [T412E]
[3] = test system: PAK2 (human), Q13177 [T402E]
JAK2 JH1 JH2 (human) = JAK2 JH1 JH2 (human) (UniProt O60674)
RIPK2 (human) = RIPK2 (human) (UniProt O43353)
MAPK12 (human) = MAPK12 (human) (UniProt P53778)
CDK2 CCNA2 (human) = CDK2 CCNA2 (human) (UniProt P20248+P24941)
TBK1 (human) = TBK1 (human) (UniProt Q9UHD2)

Sequence of BRSK2 (human) (Q8IWQ3 whole entry, looked up): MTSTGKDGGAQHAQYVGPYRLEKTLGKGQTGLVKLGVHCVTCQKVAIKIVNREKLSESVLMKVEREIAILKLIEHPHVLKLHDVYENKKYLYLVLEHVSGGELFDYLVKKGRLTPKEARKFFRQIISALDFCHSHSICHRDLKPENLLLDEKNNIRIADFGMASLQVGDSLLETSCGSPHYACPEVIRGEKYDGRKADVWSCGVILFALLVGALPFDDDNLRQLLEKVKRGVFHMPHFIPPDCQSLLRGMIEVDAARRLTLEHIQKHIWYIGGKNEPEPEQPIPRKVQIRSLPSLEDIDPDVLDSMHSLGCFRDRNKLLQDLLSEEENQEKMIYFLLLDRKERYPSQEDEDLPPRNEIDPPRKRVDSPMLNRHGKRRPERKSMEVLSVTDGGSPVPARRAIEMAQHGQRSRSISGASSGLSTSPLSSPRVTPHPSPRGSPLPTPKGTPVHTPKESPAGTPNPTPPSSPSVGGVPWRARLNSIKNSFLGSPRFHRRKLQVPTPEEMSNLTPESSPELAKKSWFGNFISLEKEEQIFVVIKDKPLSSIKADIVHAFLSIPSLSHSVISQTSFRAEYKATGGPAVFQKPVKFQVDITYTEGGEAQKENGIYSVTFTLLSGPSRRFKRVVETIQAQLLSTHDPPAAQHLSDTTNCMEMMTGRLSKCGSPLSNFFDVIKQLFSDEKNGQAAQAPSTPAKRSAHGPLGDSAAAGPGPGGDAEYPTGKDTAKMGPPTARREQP
Sequence of PAK2 (human), Q13177 [T402E] (Q13177 whole entry T402E, looked up): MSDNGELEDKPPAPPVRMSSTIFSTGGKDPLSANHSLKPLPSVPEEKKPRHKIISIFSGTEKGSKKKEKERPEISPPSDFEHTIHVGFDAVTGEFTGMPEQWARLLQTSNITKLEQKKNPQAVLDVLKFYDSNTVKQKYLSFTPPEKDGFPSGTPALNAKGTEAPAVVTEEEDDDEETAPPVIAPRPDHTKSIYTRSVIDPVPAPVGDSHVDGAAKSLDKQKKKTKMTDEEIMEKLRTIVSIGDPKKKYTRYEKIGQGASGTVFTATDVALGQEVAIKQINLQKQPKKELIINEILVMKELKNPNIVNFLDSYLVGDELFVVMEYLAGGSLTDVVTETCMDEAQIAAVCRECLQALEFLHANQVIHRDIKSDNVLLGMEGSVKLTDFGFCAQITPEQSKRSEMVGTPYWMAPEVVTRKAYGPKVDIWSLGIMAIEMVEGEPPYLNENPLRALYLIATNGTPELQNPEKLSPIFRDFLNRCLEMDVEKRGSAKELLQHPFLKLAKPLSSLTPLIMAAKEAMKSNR
Sequence of INSRR (human) (P14616 whole entry, looked up): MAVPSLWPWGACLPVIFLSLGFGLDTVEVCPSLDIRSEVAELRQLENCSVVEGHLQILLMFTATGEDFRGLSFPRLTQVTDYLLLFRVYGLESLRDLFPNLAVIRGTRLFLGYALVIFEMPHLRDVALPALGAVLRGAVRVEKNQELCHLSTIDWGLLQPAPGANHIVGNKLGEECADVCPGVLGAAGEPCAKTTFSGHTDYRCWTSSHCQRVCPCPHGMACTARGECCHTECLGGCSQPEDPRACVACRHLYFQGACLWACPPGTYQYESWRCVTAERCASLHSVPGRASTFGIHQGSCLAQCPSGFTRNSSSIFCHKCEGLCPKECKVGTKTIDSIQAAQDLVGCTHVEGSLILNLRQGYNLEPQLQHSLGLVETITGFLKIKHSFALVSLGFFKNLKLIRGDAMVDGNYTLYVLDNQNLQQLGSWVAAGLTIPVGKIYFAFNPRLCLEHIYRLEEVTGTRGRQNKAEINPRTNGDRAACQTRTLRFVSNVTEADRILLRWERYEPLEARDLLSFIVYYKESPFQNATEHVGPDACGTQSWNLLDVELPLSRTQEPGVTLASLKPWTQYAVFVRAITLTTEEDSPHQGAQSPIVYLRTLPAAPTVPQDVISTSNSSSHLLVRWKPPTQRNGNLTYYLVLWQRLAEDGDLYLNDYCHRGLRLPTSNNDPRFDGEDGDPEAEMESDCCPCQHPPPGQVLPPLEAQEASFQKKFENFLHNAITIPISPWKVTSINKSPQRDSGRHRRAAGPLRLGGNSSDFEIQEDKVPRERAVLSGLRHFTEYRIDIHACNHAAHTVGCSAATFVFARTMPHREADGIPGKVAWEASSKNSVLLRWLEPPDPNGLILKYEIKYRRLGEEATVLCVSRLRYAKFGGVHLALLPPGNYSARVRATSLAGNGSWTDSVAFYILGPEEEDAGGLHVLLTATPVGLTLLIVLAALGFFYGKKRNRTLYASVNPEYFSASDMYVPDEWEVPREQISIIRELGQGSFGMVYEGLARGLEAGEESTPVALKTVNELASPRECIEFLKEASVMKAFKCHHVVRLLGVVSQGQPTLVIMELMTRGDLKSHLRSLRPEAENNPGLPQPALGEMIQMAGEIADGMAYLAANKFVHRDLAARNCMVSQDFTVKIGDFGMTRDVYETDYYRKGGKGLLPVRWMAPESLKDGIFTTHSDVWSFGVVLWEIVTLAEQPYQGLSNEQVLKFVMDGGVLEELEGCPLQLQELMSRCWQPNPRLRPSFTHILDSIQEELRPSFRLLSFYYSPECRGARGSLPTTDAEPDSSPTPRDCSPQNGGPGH
Sequence of MELK (human) (Q14680 whole entry, looked up): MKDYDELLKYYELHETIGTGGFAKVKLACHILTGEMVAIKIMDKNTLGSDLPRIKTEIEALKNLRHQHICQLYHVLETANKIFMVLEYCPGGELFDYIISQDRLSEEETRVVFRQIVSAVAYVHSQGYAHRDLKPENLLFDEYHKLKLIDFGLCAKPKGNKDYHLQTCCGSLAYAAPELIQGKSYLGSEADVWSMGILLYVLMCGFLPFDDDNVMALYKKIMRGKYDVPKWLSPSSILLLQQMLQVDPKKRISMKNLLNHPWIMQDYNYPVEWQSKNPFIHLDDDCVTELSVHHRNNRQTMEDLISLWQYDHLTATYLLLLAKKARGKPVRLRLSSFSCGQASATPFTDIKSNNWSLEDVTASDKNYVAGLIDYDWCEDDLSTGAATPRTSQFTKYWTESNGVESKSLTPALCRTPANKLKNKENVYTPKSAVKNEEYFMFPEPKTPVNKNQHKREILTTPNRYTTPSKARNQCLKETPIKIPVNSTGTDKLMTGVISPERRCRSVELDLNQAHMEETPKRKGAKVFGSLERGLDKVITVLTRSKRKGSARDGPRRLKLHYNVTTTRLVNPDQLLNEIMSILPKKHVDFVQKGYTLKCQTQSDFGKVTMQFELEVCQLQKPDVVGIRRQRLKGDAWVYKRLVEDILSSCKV
Sequence of TTK (human) (P33981 whole entry, looked up): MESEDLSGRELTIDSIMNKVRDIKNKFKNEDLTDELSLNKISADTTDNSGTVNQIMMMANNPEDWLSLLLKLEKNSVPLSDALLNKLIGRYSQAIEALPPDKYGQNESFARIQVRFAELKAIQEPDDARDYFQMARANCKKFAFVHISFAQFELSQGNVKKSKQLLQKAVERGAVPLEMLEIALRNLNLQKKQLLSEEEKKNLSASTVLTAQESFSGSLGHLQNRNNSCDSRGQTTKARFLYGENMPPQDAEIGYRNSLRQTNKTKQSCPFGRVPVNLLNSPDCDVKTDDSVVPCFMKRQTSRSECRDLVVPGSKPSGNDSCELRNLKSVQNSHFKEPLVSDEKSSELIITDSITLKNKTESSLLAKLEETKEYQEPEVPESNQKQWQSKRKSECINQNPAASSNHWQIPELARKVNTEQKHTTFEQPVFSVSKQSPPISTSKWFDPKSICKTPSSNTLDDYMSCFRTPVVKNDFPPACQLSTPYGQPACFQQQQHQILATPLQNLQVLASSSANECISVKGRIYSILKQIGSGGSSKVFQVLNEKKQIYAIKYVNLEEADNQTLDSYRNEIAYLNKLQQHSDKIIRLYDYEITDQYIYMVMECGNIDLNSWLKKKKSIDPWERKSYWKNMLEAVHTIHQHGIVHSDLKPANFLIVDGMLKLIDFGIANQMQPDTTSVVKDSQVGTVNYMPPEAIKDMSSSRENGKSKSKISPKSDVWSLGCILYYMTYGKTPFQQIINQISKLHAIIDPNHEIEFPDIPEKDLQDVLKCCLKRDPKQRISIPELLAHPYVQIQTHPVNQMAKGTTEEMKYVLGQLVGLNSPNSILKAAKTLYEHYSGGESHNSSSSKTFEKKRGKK
Sequence of MAPK12 (human) (P53778 whole entry, looked up): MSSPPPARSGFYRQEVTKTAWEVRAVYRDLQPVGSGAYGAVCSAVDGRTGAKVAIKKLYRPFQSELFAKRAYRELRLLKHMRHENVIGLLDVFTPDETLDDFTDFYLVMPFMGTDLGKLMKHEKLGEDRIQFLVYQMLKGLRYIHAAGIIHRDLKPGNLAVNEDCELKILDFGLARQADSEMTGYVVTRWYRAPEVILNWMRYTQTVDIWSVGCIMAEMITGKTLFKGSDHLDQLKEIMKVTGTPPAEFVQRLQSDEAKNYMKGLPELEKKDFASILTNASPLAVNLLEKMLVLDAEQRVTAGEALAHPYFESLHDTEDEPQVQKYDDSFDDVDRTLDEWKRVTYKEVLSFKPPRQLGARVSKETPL
Sequence of CSNK1D (human) (P48730 whole entry, looked up): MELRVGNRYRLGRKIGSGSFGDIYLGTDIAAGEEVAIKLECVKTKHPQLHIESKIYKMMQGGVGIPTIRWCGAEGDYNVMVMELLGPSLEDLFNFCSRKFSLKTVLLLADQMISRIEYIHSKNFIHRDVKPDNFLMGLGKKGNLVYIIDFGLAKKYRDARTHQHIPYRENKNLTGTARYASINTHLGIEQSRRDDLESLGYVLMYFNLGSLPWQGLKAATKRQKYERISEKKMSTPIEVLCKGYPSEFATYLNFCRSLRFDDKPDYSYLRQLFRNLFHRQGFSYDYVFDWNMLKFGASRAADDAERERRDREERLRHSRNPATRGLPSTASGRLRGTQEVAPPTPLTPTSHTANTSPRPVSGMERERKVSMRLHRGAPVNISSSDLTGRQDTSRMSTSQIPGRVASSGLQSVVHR

SMILES: O=C(N[C@@H](COc1ccc2[nH]c(=O)[nH]c2c1)c1ccccc1)c1cccn(Cc2ccc(F)c(F)c2)c1=O
- residual activity (CSK (human); compound 0.1 µM): 109%
- residual activity (CSK (human); compound 1.0 µM): 98%
- residual activity (CSK (human); compound 10.0 µM): 101%
- residual activity (TTK (human); compound 0.1 µM): 99%
- residual activity (TTK (human); compound 1.0 µM): 100%
- residual activity (TTK (human); compound 10.0 µM): 95%
- residual activity (MAP3K11 (human); compound 0.1 µM): 104%
- residual activity (MAP3K11 (human); compound 1.0 µM): 97%
- residual activity (MAP3K11 (human); compound 10.0 µM): 46%
- residual activity (MELK (human); compound 0.1 µM): 97%
- residual activity (MELK (human); compound 1.0 µM): 110%
- residual activity (MELK (human); compound 10.0 µM): 99%
- residual activity ([1]; compound 0.1 µM): 106%
- residual activity ([1]; compound 1.0 µM): 102%
- residual activity ([1]; compound 10.0 µM): 102%
- residual activity (RPS6KA3 KD1 KD2 (human); compound 0.1 µM): 102%
- residual activity (RPS6KA3 KD1 KD2 (human); compound 1.0 µM): 98%
- residual activity (RPS6KA3 KD1 KD2 (human); compound 10.0 µM): 85%
- residual activity (IRAK4 (human)): 110%
- residual activity (AURKA (human); compound 0.1 µM): 110%
- residual activity (AURKA (human); compound 1.0 µM): 110%
- residual activity (AURKA (human); compound 10.0 µM): 103%
- residual activity (MYLK (human); compound 0.1 µM): 97%
- residual activity (MYLK (human); compound 1.0 µM): 97%
- residual activity (MYLK (human); compound 10.0 µM): 89%
- residual activity (BRSK1 (human); compound 0.1 µM): 118%
- residual activity (BRSK1 (human); compound 1.0 µM): 102%
- residual activity (BRSK1 (human); compound 10.0 µM): 92%
- residual activity (SYK (human); compound 0.1 µM): 99%
- residual activity (SYK (human); compound 1.0 µM): 88%
- residual activity (SYK (human); compound 10.0 µM): 82%
- residual activity (MAP3K7 TAB1 (human); compound 0.1 µM): 97%
- residual activity (MAP3K7 TAB1 (human); compound 1.0 µM): 103%
- residual activity (MAP3K7 TAB1 (human); compound 10.0 µM): 54%
- residual activity (PIM3 (human); compound 0.1 µM): 103%
- residual activity (PIM3 (human); compound 1.0 µM): 108%
- residual activity (PIM3 (human); compound 10.0 µM): 95%
- residual activity (CSNK1D (human); compound 0.1 µM): 103%
- residual activity (CSNK1D (human); compound 1.0 µM): 110%
- residual activity (CSNK1D (human); compound 10.0 µM): 113%
- residual activity (PIM1 (human); compound 0.1 µM): 101%
- residual activity (PIM1 (human); compound 1.0 µM): 105%
- residual activity (PIM1 (human); compound 10.0 µM): 76%
- residual activity (MAP2K2 (human); compound 0.1 µM): 121%
- residual activity (MAP2K2 (human); compound 1.0 µM): 124%
- residual activity (MAP2K2 (human); compound 10.0 µM): 135%
- residual activity (EPHB2 (human); compound 0.1 µM): 118%
- residual activity (EPHB2 (human); compound 10.0 µM): 121%
- residual activity (INSR (human); compound 0.1 µM): 99%
- residual activity (INSR (human); compound 1.0 µM): 95%
- residual activity (INSR (human); compound 10.0 µM): 93%
- residual activity (MAPKAPK3 (human); compound 0.1 µM): 116%
- residual activity (MAPKAPK3 (human); compound 1.0 µM): 109%
- residual activity (MAPKAPK3 (human); compound 10.0 µM): 74%
- residual activity (PLK1 (human); compound 0.1 µM): 118%
- residual activity (PLK1 (human); compound 1.0 µM): 107%
- residual activity (PLK1 (human); compound 10.0 µM): 121%
- residual activity (INSRR (human); compound 0.1 µM): 101%
- residual activity (INSRR (human); compound 1.0 µM): 114%
- residual activity (INSRR (human); compound 10.0 µM): 105%
- residual activity (EPHA4 (human); compound 0.1 µM): 95%
- residual activity (EPHA4 (human); compound 1.0 µM): 113%
- residual activity (EPHA4 (human); compound 10.0 µM): 107%
- residual activity (MARK4 (human); compound 0.1 µM): 150%
- residual activity (MARK4 (human); compound 1.0 µM): 143%
- residual activity (MARK4 (human); compound 10.0 µM): 83%
- residual activity (BRSK2 (human); compound 0.1 µM): 118%
- residual activity (BRSK2 (human); compound 1.0 µM): 90%
- residual activity (BRSK2 (human); compound 10.0 µM): 79%
- residual activity (CLK2 (human); compound 0.1 µM): 106%
- residual activity (CLK2 (human); compound 1.0 µM): 95%
- residual activity (CLK2 (human); compound 10.0 µM): 74%
- residual activity (FGFR1 (human); compound 0.1 µM): 96%
- residual activity (FGFR1 (human); compound 1.0 µM): 97%
- residual activity (FGFR1 (human); compound 10.0 µM): 75%
- residual activity (MAPK8 (human); compound 0.1 µM): 100%
- residual activity (MAPK8 (human); compound 10.0 µM): 114%
- residual activity (FLT1 (human); compound 0.1 µM): 106%
- residual activity (FLT1 (human); compound 1.0 µM): 100%
- residual activity ([2]; compound 0.1 µM): 103%
- residual activity ([2]; compound 1.0 µM): 97%
- residual activity ([2]; compound 10.0 µM): 98%
- residual activity ([3]; compound 0.1 µM): 113%
- residual activity ([3]; compound 1.0 µM): 109%
- residual activity ([3]; compound 10.0 µM): 79%
- residual activity (JAK2 JH1 JH2 (human); compound 0.1 µM): 98%
- residual activity (JAK2 JH1 JH2 (human); compound 1.0 µM): 99%
- residual activity (JAK2 JH1 JH2 (human); compound 10.0 µM): 101%
- residual activity (RIPK2 (human); compound 0.1 µM): 102%
- residual activity (RIPK2 (human); compound 1.0 µM): 105%
- residual activity (RIPK2 (human); compound 10.0 µM): 98%
- residual activity (MAPK12 (human); compound 0.1 µM): 98%
- residual activity (MAPK12 (human); compound 1.0 µM): 110%
- residual activity (MAPK12 (human); compound 10.0 µM): 105%
- residual activity (CDK2 CCNA2 (human); compound 0.1 µM): 90%
- residual activity (CDK2 CCNA2 (human); compound 1.0 µM): 91%
- residual activity (CDK2 CCNA2 (human); compound 10.0 µM): 95%
- residual activity (TBK1 (human); compound 0.1 µM): 109%
- residual activity (TBK1 (human); compound 1.0 µM): 132%
- residual activity (TBK1 (human); compound 10.0 µM): 102%
